{"source": "patent US9388147B2", "about": "(Receptos, Inc., priority 2009, dated 2016)"}
{"target": "S1P1/EDG1 (Homo sapiens, UniProt P21453)", "sequence (P21453 whole entry)": "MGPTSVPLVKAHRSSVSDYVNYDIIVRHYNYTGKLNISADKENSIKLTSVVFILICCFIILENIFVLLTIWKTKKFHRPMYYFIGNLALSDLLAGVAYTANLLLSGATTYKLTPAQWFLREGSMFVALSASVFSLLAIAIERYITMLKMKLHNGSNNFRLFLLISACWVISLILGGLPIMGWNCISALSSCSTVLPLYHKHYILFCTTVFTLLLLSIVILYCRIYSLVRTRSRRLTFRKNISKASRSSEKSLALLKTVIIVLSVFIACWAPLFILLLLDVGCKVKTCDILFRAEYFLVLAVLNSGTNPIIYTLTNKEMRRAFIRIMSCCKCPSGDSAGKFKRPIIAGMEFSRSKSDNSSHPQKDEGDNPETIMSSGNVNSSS", "experiment": "S1P1 CRE-bla CHOK1 reporter assay, inhibition of Forskolin induced cAMP", "format": "cell-based", "settings": "agonist activity range, S1P1 CRE-bla CHOK1, 2 μM Forskolin; read-out: S1P1 ACTIVITY", "method": "Generation of S1P1-Mediated Inhibition of cAMP Reporter Assay\nA mammalian expression plasmid containing S1P1/EDG1 cloned into pcDNA3.1 was purchased from Missouri S&T cDNA Resource Centre. […] S1P1/pcDNA3.1 was transfected into the CRE-bla CHO K1 (Invitrogen) cell line, and stable single cell clones were selected using standard techniques.\nS1P1 CRE-Bla CHOK1 Reporter Assay—Characterization of S1P1 Agonists\nCells were seeded into 384-well black wall/clear bottom plates at 10^4 cells/well/19.5 μl assay media (DMEM-phenol free, 0.5% charcoal/dextran stripped serum, 2 mM glutamine, 0.1 mM NEAA, 1 mM Na-Pyruvate, 25 mM Hepes) and incubated for 18 hrs at 37° C. in 5% CO2. Dose response curves (10-point) were generated in 10 mM Hepes, 0.1% Pluronic F127, in the presence of Forskolin. Cells were treated with 0.5 μl compound in the presence of 2 μM Forskolin for 4 hrs at 37° C. The FRET-based β-lactamase fluorescent substrate (LiveBLAzer™-FRET B/G Loading Kit CC4-AM; Invitrogen) was prepared according to manufacturer's directions, and incubated with cells for 2 hrs at room temperature. […] Data was analyzed by non-linear regression to determine the EC50 for inhibition of Forskolin induced cAMP.", "units": {"EC50": "nM"}}
{"smiles": "CC(C)Oc1ccc(-c2nc(-c3cccc4c3CC[C@@H]4N[C@H](C)CO)no2)cc1C#N", "note": "[Compound 55, 5-(3-((S)-1-(((R)-1-hydroxypropan-2-yl)amino)-2,3-dihydro-1H-inden-4-yl)-1,2,4-oxadiazol-5-yl)-2-isopropoxybenzonitrile]", "EC50": "0.05 to 0.5"}
{"smiles": "CC(C)Oc1ccc(-c2nc(-c3cccc4c3CC[C@H]4NS(N)(=O)=O)no2)cc1C#N", "note": "[Compound 248, (R)-N-(4-(5-(3 cyano-4-isopropoxyphenyl)-1,2,4-oxadiazol-3-yl)-2,3-dihydro-1H-inden-1-yl)sulfamide]", "EC50": "< 0.05"}
{"smiles": "CC(C)Oc1ccc(-c2nc(-c3cccc4c3CC[C@H]4NCC(=O)N3CC3)no2)cc1C#N", "note": "[Compound 127]", "EC50": "0.5 to 5"}
{"smiles": "COC(=O)C1CN(C2CCc3c(-c4noc(-c5ccc(OC(C)C)c(C#N)c5)n4)cccc32)C1", "note": "(racemic) [Compound 36]", "EC50": "0.05 to 0.5"}
{"smiles": "CC(=O)N[C@@H]1CCc2c(-c3noc(-c4ccc(OC(C)C)c(C#N)c4)n3)cccc21", "note": "[Compound 138, (R)-N-(4-(5-(3-cyano-4-isopropoxyphenyl)-1,2,4-oxadiazol-3-yl)-2,3-dihydro-1H-inden-1-yl)acetamide]", "EC50": "< 0.05"}
{"smiles": "CC(C)Oc1ccc(-c2nc(-c3cccc4c3CCC4NS(=O)(=O)CCN(C)C)no2)cc1C#N", "note": "(stereo in doubt) [Compound 77]", "EC50": "0.05 to 0.5"}
{"smiles": "CC(C)Oc1ccc(-c2nc(-c3cccc4c3CC[C@H]4O)no2)cc1C#N", "note": "[Compound 5, (R)-5-(3-(1-hydroxy-2,3-dihydro-1H-inden-4-yl)-1,2,4-oxadiazol-5-yl)-2-isopropoxybenzonitrile]", "EC50": "< 0.05"}
{"smiles": "CC(C)Oc1ccc(-c2nc(-c3cccc4c3CC[C@@H]4NC(=O)N3CC[C@H](N(C)C)C3)no2)cc1C#N", "note": "[Compound 245]", "EC50": "0.5 to 5"}
{"smiles": "COC(=O)N[C@@H]1CCc2c(-c3noc(-c4ccc(OC(C)C)c(C#N)c4)n3)cccc21", "note": "[Compound 149, (R)-methyl (4-(5-(3-cyano-4-isopropoxyphenyl)-1,2,4-oxadiazol-3-yl)-2,3-dihydro-1H-inden-1-yl)carbamate]", "EC50": "0.05 to 0.5"}
{"smiles": "CC(C)Oc1ccc(-c2nc(-c3cccc4c3CC[C@@H]4NCCS(C)(=O)=O)no2)cc1C#N", "note": "[Compound 126]", "EC50": "0.05 to 0.5"}
{"smiles": "COC(=O)CCCN[C@H]1CCc2c(-c3noc(-c4ccc(OC(C)C)c(C#N)c4)n3)cccc21", "note": "[Compound 145]", "EC50": "< 0.05"}
{"smiles": "CC(C)Oc1ccc(-c2nc(-c3cccc4c3CC[C@H]4N3CCOC3=O)no2)cc1C#N", "note": "[Compound 154, (R)-2-isopropoxy-5-(3-(1-(2-oxooxazolidin-3-yl)-2,3-dihydro-1H-inden-4-yl)-1,2,4-oxadiazol-5-yl)benzonitrile]", "EC50": "0.05 to 0.5"}
{"smiles": "CC(C)Oc1ccc(-c2nc(-c3cccc4c3CCC4NC3CCCCC3)no2)cc1C#N", "note": "(racemic) [Compound 22]", "EC50": "> 5"}
{"smiles": "CNC(=O)CS(=O)(=O)N[C@@H]1CCc2c(-c3noc(-c4ccc(OC(C)C)c(C#N)c4)n3)cccc21", "note": "[Compound 199]", "EC50": "< 0.05"}
{"smiles": "CC(C)Oc1ccc(-c2nc(-c3cccc4c3CC[C@H]4NS(=O)(=O)CC(=O)N3CC(O)C3)no2)cc1C#N", "note": "[Compound 190]", "EC50": "< 0.05"}
{"smiles": "CC(C)Oc1ccc(-c2nc(-c3cccc4c3CC[C@H]4NC(=O)CN(C)C)no2)cc1C#N", "note": "[Compound 67]", "EC50": "0.05 to 0.5"}
{"smiles": "CC(C)Oc1ccc(-c2nc(-c3cccc4c3CC[C@H]4N(CCO)S(C)(=O)=O)no2)cc1C#N", "note": "[Compound 112, (R)-N-(4-(5-(3 cyano-4-isopropoxyphenyl)-1,2,4-oxadiazol-3-yl)-2,3-dihydro-1H-inden-1-yl)-N-(2-hydroxyethyl)methanesulfonamide]", "EC50": "0.5 to 5"}
{"smiles": "CC(C)Oc1ccc(-c2nc(-c3cccc4c3CC[C@H]4NC(=O)N3CCC(C(=O)O)CC3)no2)cc1C#N", "note": "[Compound 238]", "EC50": "0.05 to 0.5"}
{"smiles": "CC(C)Oc1ccc(-c2nc(-c3cccc4c3CC[C@H]4NC(=O)N3CCC(CC(=O)O)CC3)no2)cc1C#N", "note": "[Compound 228]", "EC50": "0.5 to 5"}
{"smiles": "COC(=O)CC1CCN(C(=O)N[C@H]2CCc3c(-c4noc(-c5ccc(OC(C)C)c(C#N)c5)n4)cccc32)CC1", "note": "[Compound 226]", "EC50": "0.05 to 0.5"}
{"smiles": "COCCOc1ccc(-c2nc(-c3cccc4c3CCC4NCCO)no2)cc1C#N", "note": "(racemic) [Compound 106]", "EC50": "> 5"}
{"smiles": "CCN[C@H]1CCc2c(-c3noc(-c4ccc(OC(C)C)c(C#N)c4)n3)cccc21", "note": "[Compound 107]", "EC50": "0.05 to 0.5"}
{"smiles": "CC(C)C(=O)Oc1ccc(-c2nc(-c3cccc4c3CCC4NCCO)no2)cc1C#N", "note": "(racemic) [Compound 108]", "EC50": "> 5"}
{"smiles": "CC(C)Oc1ccc(-c2nc(-c3cccc4c3CCC4N3CCOCC3)no2)cc1C#N", "note": "(racemic) [Compound 46]", "EC50": "0.5 to 5"}
{"smiles": "CC(C)Oc1ccc(-c2nc(-c3cccc4c3CC[C@@H]4O)no2)cc1C(F)(F)F", "note": "[Compound 8]", "EC50": "0.05 to 0.5"}
{"smiles": "CC(C)Oc1ccc(-c2nc(-c3cccc4c3CCC4NS(=O)(=O)c3ccccc3)no2)cc1C#N", "note": "(stereo in doubt) [Compound 79]", "EC50": "0.5 to 5"}
{"smiles": "CC(C)Oc1ccc(-c2nc(-c3cccc4c3CC[C@H]4NCc3ccccc3)no2)cc1C#N", "note": "[Compound 156]", "EC50": "0.5 to 5"}
{"smiles": "CC(C)Oc1ccc(-c2nc(-c3cccc4c3CC[C@@H]4NCc3ccccc3)no2)cc1C#N", "note": "[Compound 157]", "EC50": "0.5 to 5"}
{"smiles": "CC(C)Oc1ccc(-c2nc(-c3cccc4c3CC[C@@H]4NC(=O)N3CCC(CO)CC3)no2)cc1C#N", "note": "[Compound 218]", "EC50": "0.05 to 0.5"}
{"smiles": "CC(C)Oc1ccc(-c2nc(-c3cccc4c3CC[C@@H]4N3CC(C(=O)O)C3)no2)cc1C#N", "note": "[Compound 203]", "EC50": "0.05 to 0.5"}
{"smiles": "CC(C)Oc1ccc(-c2nc(-c3cccc4c3CC[C@H]4NS(=O)(=O)CC(=O)N3CCC3)no2)cc1C#N", "note": "[Compound 201]", "EC50": "< 0.05"}
{"smiles": "CCN(CC)CCNC1CCc2c(-c3noc(-c4ccc(OC(C)C)c(C#N)c4)n3)cccc21", "note": "(racemic) [Compound 28]", "EC50": "0.5 to 5"}
{"smiles": "CC(C)Oc1ccc(-c2nc(-c3cccc4c3CC[C@H]4N)no2)cc1", "note": "[Compound 96, (R)-4-(5-(4-isopropoxyphenyl)-1,2,4-oxadiazol-3-yl)-2,3-dihydro-1H-inden-1-amine]", "EC50": "> 5"}
{"smiles": "CC(C)Oc1ccc(-c2nc(-c3cccc4c3CCC4NC(C)(C)CO)no2)cc1C#N", "note": "(racemic) [Compound 15]", "EC50": "0.5 to 5"}
{"smiles": "CC(C)Oc1ccc(-c2nc(-c3cccc4c3CC[C@H]4NC(=O)N3CCC[C@H](O)C3)no2)cc1C#N", "note": "[Compound 215]", "EC50": "0.5 to 5"}
{"smiles": "CC(C)Oc1ccc(-c2nc(-c3cccc4c3CCC4NCCN3CCNCC3)no2)cc1C#N", "note": "(racemic) [Compound 25]", "EC50": "> 5"}
{"smiles": "CC(C)Oc1ccc(-c2nc(-c3cccc4c3CC[C@H]4NC(=O)N3CC[C@@H](O)C3)no2)cc1C#N", "note": "[Compound 230]", "EC50": "0.05 to 0.5"}
{"smiles": "CC(C)Oc1ccc(-c2nc(-c3cccc4c3CC[C@@H]4NC(=O)CO)no2)cc1C#N", "note": "[Compound 137]", "EC50": "< 0.05"}
{"smiles": "CC(C)Oc1ccc(-c2nc(-c3cccc4c3CC[C@@H]4NC(=O)N3CC[C@@H](N)C3)no2)cc1C#N", "note": "[Compound 223]", "EC50": "0.5 to 5"}
{"smiles": "CC(C)Oc1ccc(-c2nc(-c3cccc4c3CC[C@@H]4NS(=O)(=O)CC(=O)N3CCC(O)CC3)no2)cc1C#N", "note": "[Compound 193]", "EC50": "0.05 to 0.5"}
{"smiles": "COC(=O)C1CCN(C(=O)N[C@@H]2CCc3c(-c4noc(-c5ccc(OC(C)C)c(C#N)c5)n4)cccc32)CC1", "note": "[Compound 236]", "EC50": "0.05 to 0.5"}
{"smiles": "CC(C)Oc1ccc(-c2nc(-c3cccc4c3CCC4NCCN3CCOCC3)no2)cc1C#N", "note": "(racemic) [Compound 21]", "EC50": "0.5 to 5"}
{"smiles": "CC(C)Oc1ccc(-c2nc(-c3cccc4c3CC[C@H]4NCC(=O)N3CCN(C)CC3)no2)cc1C#N", "note": "[Compound 132]", "EC50": "0.5 to 5"}
{"smiles": "CC(C)Oc1ccc(-c2nc(-c3cccc4c3CC[C@H]4N)no2)cc1Cl", "note": "[Compound 95, (R)-4-(5-(3-chloro-4-isopropoxyphenyl)-1,2,4-oxadiazol-3-yl)-2,3-dihydro-1H-inden-1-amine]", "EC50": "> 5"}
{"smiles": "CC(C)Oc1ccc(-c2nc(-c3cccc4c3CC[C@@H]4NCC(F)F)no2)cc1C#N", "note": "[Compound 141]", "EC50": "0.05 to 0.5"}
{"smiles": "CNCCS(=O)(=O)N[C@H]1CCc2c(-c3noc(-c4ccc(OC(C)C)c(C#N)c4)n3)cccc21", "note": "[Compound 74]", "EC50": "0.05 to 0.5"}
{"smiles": "CNCCS(=O)(=O)NC1CCc2c(-c3noc(-c4ccc(OC(C)C)c(C#N)c4)n3)cccc21", "note": "(stereo in doubt) [Compound 75]", "EC50": "0.5 to 5"}
{"smiles": "CC(C)Oc1ccc(-c2nc(-c3cccc4c3CCC4NS(=O)(=O)c3ccc(C(=O)O)cc3)no2)cc1C#N", "note": "(stereo in doubt) [Compound 80]", "EC50": "> 5"}
{"smiles": "CCOc1ccc(-c2nc(-c3cccc4c3CC[C@H]4O)no2)cc1OCC", "note": "[Compound 1]", "EC50": "0.05 to 0.5"}
{"smiles": "CC(C)Oc1ccc(-c2nc(-c3cccc4c3CC[C@@H]4NCCCCC(=O)O)no2)cc1C#N", "note": "[Compound 148]", "EC50": "< 0.05"}
{"smiles": "CC(C)Oc1ccc(-c2nc(-c3cccc4c3CC[C@@H]4NS(=O)(=O)C3CC3)no2)cc1C#N", "note": "[Compound 167]", "EC50": "0.05 to 0.5"}
{"smiles": "CC(C)Oc1ccc(-c2nc(-c3cccc4c3CC[C@@H]4NS(=O)(=O)CC(=O)O)no2)cc1C#N", "note": "[Compound 71, (S)-2-(N-(4-(5-(3-cyano-4-isopropoxyphenyl)-1,2,4-oxadiazol-3-yl)-2,3-dihydro-1H-inden-1-yl)sulfamoyl)acetic acid]", "EC50": "0.05 to 0.5"}
{"smiles": "CC(=O)O[C@@H]1CCc2c(-c3noc(-c4ccc(OC(C)C)c(C#N)c4)n3)cccc21", "note": "[Compound 13, (R)-4-(5-(3-cyano-4-isopropoxyphenyl)-1,2,4-oxadiazol-3-yl)-2,3-dihydro-1H-inden-1-yl acetate]", "EC50": "0.5 to 5"}
